# In patent EP2116263A1, “Reversibly light-switchable drug-conjugates” (priority 2008, dated 2009):
# Entries after “also recorded” stand apart in the source; their conditions may differ. Like-named read-outs stand apart in the source and are kept apart here.
# What was measured:
# [1] = biological target: Recombinant hCyp18 PPIase activity (Homo sapiens, UniProt P62937); test: Cyp18 PPIase activity, protease coupled assay; assay type: biochemical
# Method: The PPIase activity was measured at 7 °C with a protease coupled assay on a Hewlett-Packard 8452a diode array spectrophotometer (Fischer et al., 1984). To 1220 µl Hepes buffer pH 7.8, Cyp18 and inhibitor of desired concentration are added. After 10 min of incubation, protease and substrate were added. The final substrate concentration is 40 µM in 1280 µl. The cis/trans isomerization was monitor at 390 nm with 510 nm as a reference. The rate is calculated according to first order reaction. Recombinant hCyp18 PPIase activity was measured with the peptide Suc-Ala-Phe-Pro-Phe-NH-Np as substrate. The substrate was dissolved in DMSO (10 mg/ml). α-Chymotrypsin was used as auxiliary protease. The residual enzymatic activity was plotted versus the inhibitor concentration and used for calculating the inhibitor constants Ki as described before (Schutkowski et al., 1995).
# PPIase activities are measured with a protease coupled assay, using Suc-Ala-Phe-Pro-Phe-NH-Np as substrate and chymotrypsin as auxiliary protease, in 35 mM HEPES buffer pH 7.8, at 7 °C. Cyp18 concentration is 2.5 nM. […] Irradiations have been performed with light of 740 nm for 45 min. […]
# [2] = biological target: calcineurin (CaN) phosphatase activity (Homo sapiens, UniProt P62937+P63098+Q08209); test: Calcineurin (CaN) phosphatase activity inhibition assay in the presence of Cyp18; conditions: for change of CaN inhibition between cis and trans forms / upon light irradiation: in the presence of Cyp18, absence of SA
# Method: The reaction mixture containing 700 µM peptide, 0.2 µM cAMP, 100 µCi[γ-^33P]ATP and 10 kU PKA in a final volume of 100 µl in the buffer (containing 20 mM MES, pH 6.5, 0.4 mM EDTA, 0.2 mM EGTA, 50 µM CaCl2 and 2 mM MgCl2) was incubated for one hour at 30 °C. The phosphorylated peptides were separated from unincorporated labeled ATP by 1 ml RP-C2 clean up extraction column (Amchro, Sulzbach, Germany). The eluted peptide (with 70% acetonitrile) was lyophilized and reconstituted with de-ionized water.
# The scintillation proximity concept has been applied for measuring calcineurin activity using ScintiPlate wells coated with streptavidin. […] Biotinylated [γ-^33P] RII peptide was added to a final concentration of 100 nM and the total assay volume is 100 µl. After incubation at 30 °C for 30 min, 90 µl of the reaction mixture was transferred to the ScintiPlate well coated with streptavidin. The streptavidin immobilizes the biotinylated RII peptide on the wells. After 20 min at 22 °C the well was washed once with water and the RII associated [γ-^33P] was measured in the top-counter MicroBeta (Wallac, Turku, Finland).
# CaN and Cyp18 = test: Cross-linking (BS3) of CaN and Cyp18 in treated Jurkat cells, anti-CaN blot; assay type: cell-based, human
# Method: Cells were lysed and the clear supernatants were incubated with calmodulin sepharose. Cross-linking reagent BS^3 was added to the EDTA eluates. After TCA precipitation, the samples were separated by SDS-PAGE and probed with anti-CaN antibody and detected by enhanced chemiluminescent reaction.
# [3] = biological target: Cyp18/CsA-AB-CsA/Cyp18 tertiary complex (Homo sapiens, UniProt P62937); test: Coprecipitation of His4-Cyp18 with GST-Cyp18 matrix on glutathione-Sepharose; assay type: binding
# Chain of Cyp18/CsA-AB-CsA/Cyp18 tertiary complex (P62937 whole entry, one chain of several): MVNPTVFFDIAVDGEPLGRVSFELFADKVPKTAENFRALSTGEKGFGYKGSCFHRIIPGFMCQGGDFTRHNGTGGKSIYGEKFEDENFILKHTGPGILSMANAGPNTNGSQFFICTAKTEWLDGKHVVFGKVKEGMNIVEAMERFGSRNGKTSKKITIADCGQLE
# Excerpt: The proteins were eluted by boiling with sample buffer and separated by SDS-PAGE, transferred onto nitrocellulose membrane and probed with anti-His and anti-GST antibodies.
# Chain of Recombinant hCyp18 PPIase activity (P62937 whole entry): as the sequence (P62937 whole entry, one chain of several) above
smiles,measurement,setting,value
C/C=C/C[C@@H](C)[C@@H](O)[C@H]1C(=O)N[C@@H](CC)C(=O)N(C)CC(=O)N(C)[C@@H](CC(C)C)C(=O)N[C@@H](C(C)C)C(=O)N(C)[C@@H](CC(C)C)C(=O)N[C@@H](C)C(=O)N[C@H](COCC(=O)Nc2ccc(N=Nc3ccc(NC(=O)CCCC[C@@H]4SC[C@@H]5NC(=O)N[C@@H]54)cc3)cc2)C(=O)N(C)[C@@H](CC(C)C)C(=O)N(C)[C@@H](CC(C)C)C(=O)N(C)[C@@H](C(C)C)C(=O)N1C [CsA-AB-Biotin],IC50,"[1]; IC50, inhibition of Cyp18 PPIase activity, cis isomer bound to the borrowed protein SA (4 equivalents)",4.45 ± 0.55 nM
same,IC50,"[1]; IC50, inhibition of Cyp18 PPIase activity, irradiated, cis, absence of SA, Cyp18 2.5 nM, 7 °C",2.21 ± 0.02 nM
same,IC50,"[1]; IC50, inhibition of Cyp18 PPIase activity, non-irradiated, trans, absence of SA, Cyp18 2.5 nM, 7 °C",2.96 ± 0.68 nM
same,IC50,"[1]; IC50, inhibition of Cyp18 PPIase activity, trans isomer bound to the borrowed protein SA (4 equivalents)",9.37 ± 0.75 nM
same,trans/cis difference of activity in CaN inhibition assay,[2]; absence of SA,1.4
same,change of CaN inhibition between cis and trans forms / upon light irradiation,[2],only a minor change
same,"IC50, CaN inhibition","[2]; non-irradiated (trans), in the presence of SA",too high to be determined precisely
same,inhibition at 10 µM,[2]; read-out: CaN inhibition,30%
same,cross-linking between CaN and Cyp18,"CaN and Cyp18; absence of SA, conjugate in photoswitched cis form",intensive cross-linking
same,cross-linked CaN-Cyp18-SA,"CaN and Cyp18; cells transfected with SA, cis",detected only in sample treated with cis-CsA-AB-Biotin; also recorded: can only be detected in samples treated with cis-CsA-AB-Biotin
same,cross-linking between CaN and Cyp18,"CaN and Cyp18; cells transfected with SA, non-irradiated trans",weakest cross-linking effect
same,interaction of the Cyp18-trans-CsA-AB-Biotin-SA complex with CaN,"CaN and Cyp18; cells transfected with SA, trans",does not interact with CaN
C/C=C/C[C@@H](C)[C@@H](O)[C@H]1C(=O)N[C@@H](CC)C(=O)N(C)CC(=O)N(C)[C@@H](CC(C)C)C(=O)N[C@@H](C(C)C)C(=O)N(C)[C@@H](CC(C)C)C(=O)N[C@@H](C)C(=O)N[C@H](COCC(=O)Nc2ccc(N=Nc3ccc(NC(=O)COC[C@H]4NC(=O)[C@H](C)NC(=O)[C@H](CC(C)C)N(C)C(=O)[C@H](C(C)C)NC(=O)[C@H](CC(C)C)N(C)C(=O)CN(C)C(=O)[C@H](CC)NC(=O)[C@H]([C@H](O)[C@H](C)C/C=C/C)N(C)C(=O)[C@H](C(C)C)N(C)C(=O)[C@H](CC(C)C)N(C)C(=O)[C@H](CC(C)C)N(C)C4=O)cc3)cc2)C(=O)N(C)[C@@H](CC(C)C)C(=O)N(C)[C@@H](CC(C)C)C(=O)N(C)[C@@H](C(C)C)C(=O)N1C [CsA-AB-CsA],"increase of inhibitory potency towards the PPIase activity of Cyp18, cis compared to trans",[1]; irradiated cis vs non-irradiated trans,7 fold
same,Cyp18 inhibitory profile after thermal cis to trans isomerization,[1]; irradiated sample kept in darkness overnight at room temperature,reversed
same,IC50,"[1]; irradiated, cis, absence of SA, Cyp18 2.5 nM, 7 °C, read-out: IC50, inhibition of Cyp18 PPIase activity",30 ± 3 nM
same,IC50,"[1]; non-irradiated, trans, absence of SA, Cyp18 2.5 nM, 7 °C, read-out: IC50, inhibition of Cyp18 PPIase activity",206 ± 22 nM
same,change of CaN inhibition between cis and trans forms / upon light irradiation,[2],significant increase
same,coprecipitation of His4-Cyp18 with GST-Cyp18,[3]; photoswitched cis (irradiated),coprecipitated together with GST-Cyp18
same,coprecipitation of His4-Cyp18 with GST-Cyp18,[3]; trans (non-irradiated),only a minor amount
